# Data taken from patent US8952024B2, “Herbicidal pyrimidone derivatives” (E I du Pont de Nemours and Company, priority 2009, dated 2015).
# How the values were obtained:
# Experiment in all cases: Test B pre-/postemergence plant response
# Type in all cases: in vivo
# [1] = system: downy bromegrass (Bromus tectorum)
# Procedure, shortened: (§1)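 Plants treated either at seeding (loam/sand soil) or postemergence at 2 to 18 cm height, using a surfactant-containing non-phytotoxic solvent formulation. Evaluation was visual after 13 to 15 days, 0 to 100 scale relative to controls.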
# [2] = system: bermudagrass (Cynodon dactylon)
# Procedure, shortened: as §1
# [3] = system: Italian ryegrass (Lolium multiflorum)
# Procedure, shortened: as §1
# [4] = system: lambsquarters (Chenopodium album)
# Procedure, shortened: as §1
# kochia (Kochia scoparia) = system: kochia (Kochia scoparia)
# Procedure, shortened: as §1
# [5] = system: ragweed (common ragweed, Ambrosia elatior)
# Procedure, shortened: as §1
# corn (Zea mays) = system: corn (Zea mays)
# Procedure, shortened: as §1
# [6] = system: Surinam grass (Brachiaria decumbens)
# Procedure, shortened: as §1
# [7] = system: yellow nutsedge (Cyperus esculentus)
# Procedure, shortened: as §1
# [8] = system: giant foxtail (Setaria faberii)
# Procedure, shortened: as §1
# [9] = system: velvetleaf (Abutilon theophrasti)
# Procedure, shortened: as §1
# [10] = system: johnsongrass (Sorghum halepense)
# Procedure, shortened: as §1
# [11] = system: blackgrass (Alopecurus myosuroides)
# Procedure, shortened: as §1
# [12] = system: woolly cupgrass (Eriochloa villosa)
# Procedure, shortened: as §1
# [13] = system: goosegrass (Eleusine indica)
# Procedure, shortened: as §1
# [14] = system: green foxtail (Setaria viridis)
# Procedure, shortened: as §1
# [15] = system: large crabgrass (Digitaria sanguinalis)
# Procedure, shortened: as §1
# [16] = 250 g ai/ha, Preemergence, 0 to 100 scale
# [17] = Postemergence, 31 g ai/ha, scale 0 to 100 (0 no effect, 100 complete control)
# [18] = Postemergence, 62 g ai/ha, scale 0 (no effect) to 100 (complete control), 13 to 15 days
# [19] = Postemergence, 125 g ai/ha, visual rating after 13 to 15 days, scale 0 (no effect) to 100 (complete control)
# [20] = Postemergence, 250 g ai/ha, scale 0 to 100
# [21] = Preemergence, 31 g ai/ha, scale 0 to 100 (0 no effect, 100 complete control)
# [22] = Preemergence, 62 g ai/ha, scale 0 to 100, 0 no effect, 100 complete control
# [23] = Preemergence, 125 g ai/ha, 0 to 100 scale
structure (smiles),measurement,setting,value
Cc1cccc(-n2c(-c3ccccc3)ncc(C(=O)C3=C(O)CCCC3=O)c2=O)c1C [Compound 27],"Plant response rating, Bromegrass, Downy",[1]; [16],30
same,"Plant response rating, Bromegrass, Downy",[1]; [17],5
same,"Plant response rating, Bromegrass, Downy",[1]; [18],5
same,"Plant response rating, Bromegrass, Downy",[1]; [19],20
same,"Bromegrass, Downy plant response rating",[1]; [20],30
same,"Plant response rating, Bromegrass, Downy",[1]; [21],0
same,"Plant response rating, Bromegrass, Downy",[1]; [22],0
same,"Bromegrass, Downy plant response rating",[1]; [23],0
same,"Plant response rating, Bermudagrass",[2]; [16],100
same,"Plant response rating, Bermudagrass",[2]; [17],70
same,"Plant response rating, Bermudagrass",[2]; [18],90
same,"Plant response rating, Bermudagrass","[2]; Postemergence, 125 g ai/ha, scale 0 to 100 (0 no effect, 100 complete control), 13 to 15 days",100
same,Bermudagrass plant response rating,[2]; [20],100
same,"Plant response rating, Bermudagrass",[2]; [21],70
same,"Plant response rating, Bermudagrass",[2]; [22],98
same,Bermudagrass plant response rating,[2]; [23],100
same,"Plant response rating, Ryegrass, Italian",[3]; [16],0
same,"Plant response rating, Ryegrass, Italian",[3]; [17],0
same,"Plant response rating, Ryegrass, Italian",[3]; [18],5
same,"Plant response rating, Ryegrass, Italian",[3]; [19],5
same,"Ryegrass, Italian plant response rating",[3]; [20],10
same,"Plant response rating, Ryegrass, Italian",[3]; [21],0
same,"Plant response rating, Ryegrass, Italian",[3]; [22],0
same,"Ryegrass, Italian plant response rating",[3]; [23],0
same,"Plant response rating, Lambsquarters",[4]; [16],100
same,"Plant response rating, Lambsquarters",[4]; [17],90
same,"Plant response rating, Lambsquarters",[4]; [18],95
same,"Plant response rating, Lambsquarters",[4]; [19],95
same,Lambsquarters plant response rating,[4]; [20],98
same,"Plant response rating, Lambsquarters",[4]; [21],100
same,"Plant response rating, Lambsquarters",[4]; [22],100
same,Lambsquarters plant response rating,[4]; [23],100
same,"Plant response rating, Kochia",kochia (Kochia scoparia); [16],100
same,"Plant response rating, Kochia",kochia (Kochia scoparia); [19],100
same,Kochia plant response rating,kochia (Kochia scoparia); [20],100
same,"Plant response rating, Kochia",kochia (Kochia scoparia); [21],100
same,"Plant response rating, Kochia",kochia (Kochia scoparia); [22],100
same,Kochia plant response rating,kochia (Kochia scoparia); [23],100
same,"Plant response rating, Ragweed",[5]; [16],100
same,"Plant response rating, Ragweed",[5]; [17],85
same,"Plant response rating, Ragweed",[5]; [18],98
same,"Plant response rating, Ragweed",[5]; [19],100
same,Ragweed plant response rating,[5]; [20],100
same,"Plant response rating, Ragweed",[5]; [21],85
same,"Plant response rating, Ragweed",[5]; [22],85
same,Ragweed plant response rating,[5]; [23],100
same,"Plant response rating, Corn",corn (Zea mays); [16],0
same,"Plant response rating, Corn",corn (Zea mays); [17],35
same,"Plant response rating, Corn",corn (Zea mays); [18],40
same,"Plant response rating, Corn",corn (Zea mays); [19],50
same,Corn plant response rating,corn (Zea mays); [20],70
same,"Plant response rating, Corn",corn (Zea mays); [21],0
same,"Plant response rating, Corn",corn (Zea mays); [22],0
same,Corn plant response rating,corn (Zea mays); [23],0
same,"Plant response rating, Surinam Grass",[6]; [16],95
same,"Plant response rating, Surinam Grass",[6]; [17],50
same,"Plant response rating, Surinam Grass",[6]; [18],70
same,"Plant response rating, Surinam Grass",[6]; [19],80
same,Surinam Grass plant response rating,[6]; [20],80
same,"Plant response rating, Surinam Grass",[6]; [21],0
same,"Plant response rating, Surinam Grass",[6]; [22],20
same,Surinam Grass plant response rating,[6]; [23],60
same,"Plant response rating, Nutsedge, Yellow",[7]; [16],90
same,"Plant response rating, Nutsedge, Yellow",[7]; [17],30
same,"Plant response rating, Nutsedge, Yellow",[7]; [18],40
same,"Plant response rating, Nutsedge, Yellow",[7]; [19],50
same,"Nutsedge, Yellow plant response rating",[7]; [20],55
same,"Plant response rating, Nutsedge, Yellow",[7]; [21],0
same,"Plant response rating, Nutsedge, Yellow",[7]; [22],20
same,"Nutsedge, Yellow plant response rating",[7]; [23],30
same,"Plant response rating, Foxtail, Giant",[8]; [16],95
same,"Plant response rating, Foxtail, Giant",[8]; [17],65
same,"Plant response rating, Foxtail, Giant",[8]; [18],85
same,"Plant response rating, Foxtail, Giant",[8]; [19],90
same,"Foxtail, Giant plant response rating",[8]; [20],90
same,"Plant response rating, Foxtail, Giant",[8]; [21],0
same,"Plant response rating, Foxtail, Giant",[8]; [22],5
same,"Foxtail, Giant plant response rating",[8]; [23],85
same,"Plant response rating, Velvetleaf",[9]; [16],95
same,"Plant response rating, Velvetleaf",[9]; [17],50
same,"Plant response rating, Velvetleaf",[9]; [18],60
same,"Plant response rating, Velvetleaf",[9]; [19],80
same,Velvetleaf plant response rating,[9]; [20],90
same,"Plant response rating, Velvetleaf",[9]; [21],55
same,"Plant response rating, Velvetleaf",[9]; [22],85
same,Velvetleaf plant response rating,[9]; [23],90
same,"Plant response rating, Johnsongrass",[10]; [16],85
same,"Plant response rating, Johnsongrass",[10]; [17],40
same,"Plant response rating, Johnsongrass",[10]; [18],45
same,"Plant response rating, Johnsongrass",[10]; [19],45
same,Johnsongrass plant response rating,[10]; [20],80
same,"Plant response rating, Johnsongrass",[10]; [21],0
same,"Plant response rating, Johnsongrass",[10]; [22],5
same,Johnsongrass plant response rating,[10]; [23],50
same,"Plant response rating, Blackgrass",[11]; [16],30
same,"Plant response rating, Blackgrass",[11]; [17],0
same,"Plant response rating, Blackgrass",[11]; [18],5
same,"Plant response rating, Blackgrass",[11]; [19],45
same,Blackgrass plant response rating,[11]; [20],50
same,"Plant response rating, Blackgrass",[11]; [21],0
same,"Plant response rating, Blackgrass",[11]; [22],0
same,Blackgrass plant response rating,[11]; [23],10
same,"Plant response rating, Cupgrass, Woolly",[12]; [16],80
same,"Plant response rating, Cupgrass, Woolly",[12]; [17],60
same,"Plant response rating, Cupgrass, Woolly",[12]; [18],60
same,"Plant response rating, Cupgrass, Woolly",[12]; [19],70
same,"Cupgrass, Woolly plant response rating",[12]; [20],80
same,"Plant response rating, Cupgrass, Woolly",[12]; [21],0
same,"Plant response rating, Cupgrass, Woolly",[12]; [22],0
same,"Cupgrass, Woolly plant response rating",[12]; [23],60
same,"Plant response rating, Goosegrass",[13]; [16],100
same,"Plant response rating, Goosegrass",[13]; [17],90
same,"Plant response rating, Goosegrass",[13]; [18],90
same,"Plant response rating, Goosegrass",[13]; [19],98
same,Goosegrass plant response rating,[13]; [20],98
same,"Plant response rating, Goosegrass",[13]; [21],80
same,Goosegrass plant response rating,[13]; [23],100
same,"Plant response rating, Foxtail, Green",[14]; [16],80
same,"Plant response rating, Foxtail, Green",[14]; [17],80
same,"Plant response rating, Foxtail, Green",[14]; [18],80
same,"Plant response rating, Foxtail, Green",[14]; [19],80
same,"Foxtail, Green plant response rating",[14]; [20],90
same,"Plant response rating, Foxtail, Green",[14]; [21],0
same,"Plant response rating, Foxtail, Green",[14]; [22],30
same,"Foxtail, Green plant response rating",[14]; [23],50
same,"Plant response rating, Crabgrass, Large",[15]; [16],100
same,"Plant response rating, Crabgrass, Large",[15]; [17],50
same,"Plant response rating, Crabgrass, Large",[15]; [18],50
same,"Plant response rating, Crabgrass, Large",[15]; [19],60
same,"Crabgrass, Large plant response rating",[15]; [20],60
same,"Plant response rating, Crabgrass, Large",[15]; [21],5
same,"Plant response rating, Crabgrass, Large",[15]; [22],80
same,"Crabgrass, Large plant response rating",[15]; [23],100
